No end group written: not given here.

One series concerns off-target kinases. The settings on record: cited from earlier work.
The next series concerns ALK5 (TβRI). Particulars: cited from earlier work.
The conditions of series [1]: deemed target-related; cited from earlier work.
Another series concerns RIPK2. Particulars: cited from earlier work.
For another series, the system named is activin receptor ALK7. The settings on record: cited from earlier work.
A further series relates to activin receptor ALK4. Particulars: cited from earlier work.
A further series relates to CK1δ. The settings on record: cited from earlier work.
A further series concerns p38MAPK. The settings on record: cited from earlier work.
The target in series [2] is T1, TGF-β1 (Homo sapiens, UniProt P01137). Particulars: cited from earlier work.
Series [3] deals with T1, TGF-β1. Particulars: cited from earlier work. This is another data set of the same source.
In series [4] the target is T1, TGF-β1. Nature of the series: surface plasmon resonance. In kind it is binding. Particulars: for kon: read-out: association rate constant ka; for koff: read-out: dissociation rate constant kd. On the technique in general: Surface plasmon resonance follows binding to a sensor surface in real time, without labels.
In series [5] the test system is mouse T-lymphocyte HT-2 cells. Put plainly: HT-2 T-lymphocyte proliferation assay. In kind it is cell-based.
Series [6] deals with mouse T-lymphocyte HT-2 cells. Particulars: cited from earlier work.
The subject of series [7] is human umbilical vein endothelial cells (HUVECs). Nature of the series: HUVEC proliferation assay. In kind it is cell-based. The settings on record: HUVEC (Fig. S5).

T1 sequence (P01137 279-390 limits assumed, species assumed): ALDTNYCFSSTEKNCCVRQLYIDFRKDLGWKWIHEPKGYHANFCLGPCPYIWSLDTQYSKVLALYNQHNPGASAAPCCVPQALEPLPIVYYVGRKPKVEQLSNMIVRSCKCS

Take `Cc1cccc(-c2nn3c(c2-c2ccnc4ccc(C(N)=O)cc24)CCC3)n1` [Galunisertib]: the “activity against off-target kinases” value in the series on off-target kinases is recorded as “strong activity against off-target kinases”. Further, the “inhibition of TβRI by galunisertib” value in the series on ALK5 (TβRI) is recorded as “small molecule inhibitor of TβRI”. The “cardiac toxicity in preclinical development” value in series [1] is given as “cardiac toxicities identified during preclinical development”.
With `NC(=O)c1ccc(-c2nc(-c3ccc4c(c3)OCO4)c(-c3ccccn3)[nH]2)cc1` [SB-431542], in the series with RIPK2, the “activity against RIPK2” value was “activity”. Besides, the “activity against ALK7” value in the series with activin receptor ALK7 was “activity against activin receptors ALK4 and ALK7”. For the same molecule, in the series with activin receptor ALK4, the “activity against ALK4” value is recorded as “activity against activin receptors ALK4”. Moreover, the “activity against CK1δ” value in the series with CK1δ is “activity”. In addition, the “activity against p38MAPK” value with p38MAPK is on record as “activity”. The “inhibition of ALK5 (TβRI)” value with ALK5 (TβRI) is “small molecule inhibitor of ALK5 (TβRI)”.
Take `CCCCc1nc(Cl)c(CO)n1Cc1ccc(-c2ccccc2-c2nn[nH]n2)cc1` [losartan, reference compound]: on TGF-β1 [2], the “direct binding to TGF-β1 or its receptors” value (“direct binding” below) is listed as “do not directly bind TGF-β1 or its receptors”. For the same molecule, the “activity against TGF-β1, preclinical anti-fibrotic” value on TGF-β1 [3] is reported as “activity against TGF-β1”.
On to `Cc1ccc(C(=O)Nc2ccc(S(=O)(=O)O)c3cc(S(=O)(=O)O)cc(S(=O)(=O)O)c23)cc1NC(=O)c1cccc(NC(=O)Nc2cccc(C(=O)Nc3cc(C(=O)Nc4ccc(S(=O)(=O)O)c5cc(S(=O)(=O)O)cc(S(=O)(=O)O)c45)ccc3C)c2)c1` [suramin, reference compound], for which the “direct binding” value on TGF-β1 [2] is reported as “do not directly bind TGF-β1 or its receptors”. Further, the “activity against TGF-β1, preclinical anti-fibrotic” value at TGF-β1 [3] is recorded as “activity against TGF-β1”.
With CIAEIDLIPRDRPF [RIPΔ], at TGF-β1 [4], the kon was 192000 M⁻¹ s⁻¹ and the koff came out at 0.0199 s⁻¹.
On the same counts, the results for CIAEIDLIPRDRPFV [RIP] are 140000 M⁻¹ s⁻¹ and 0.00836 s⁻¹.
For CLIDFRIPADREVPI [Scrambled RIP], in that order: 68500 M⁻¹ s⁻¹ and 0.0352 s⁻¹.
For CPQLGKFGDVRF [RIIP-1], the “effect on HT-2 proliferation (fluorescence) vs own scrambled control” value in series [5] (10 μM soluble peptide, 0.1 ng/mL TGF-β1 (Fig. 2b)) was “not statistically different between RIIP-1 and its scrambled control”.
As for “TGF-β1: most abundant TGF-β isoform in adult tissues and platelets”, in [6], the “published IC50 value of TGF-β1 in HT-2 assay” value is listed as 0.04 to 0.2 ng/mL. The “IC50 of TGF-β1 in the HT-2 proliferation assay” value in [5] (IL-4 dependent proliferation, fluorescence-based cell viability assay) is given as 0.05 ng/mL. Moreover, in [5] (read-out: IC50 of TGF-β1 in the HT-2 proliferation assay (molar), IL-4 dependent proliferation, fluorescence-based cell viability assay), the IC50 is 3.9 pM. Further, the “inhibition of IL-4 dependent HT-2 proliferation by TGF-β1” value in series [5] (soluble TGF-β1, fluorescence-based cell viability assay (Fig. 2a)) was “inhibited IL-4 dependent proliferation in a dose dependent manner”. In series [7], the “TGF-β1 concentration of highest inhibition of HUVEC proliferation” value worked out at 41 pg/mL, the “TGF-β1 concentration of highest inhibition of HUVEC proliferation (molar)” value was found to be 3.2 pM and the “TGF-β1 concentration range suppressing HUVEC proliferation” value is on record as 10 to 1000 ng/mL.
Regarding relaxin, the “direct binding” value at TGF-β1 [2] was “do not directly bind TGF-β1 or its receptors”. Also, the “activity against TGF-β1, preclinical anti-fibrotic” value at TGF-β1 [3] is given as “activity against TGF-β1”.

The record behind these values is article PMC9254699 (Biomaterials science, 2021).
